The test system of the data set is CCRIS mutagenicity, Ames/micronucleus/aberration tests. Put plainly: CCRIS mutagenicity studies.
Setting [1] is: Test System: AMES SALMONELLA TYPHIMURIUM, Strain/Indicator: TA98, Metabolic Activation: NONE, Method: PREINCUBATION
[2] abbreviates: Test System: AMES SALMONELLA TYPHIMURIUM, Strain/Indicator: TA100, Metabolic Activation: NONE, Method: PREINCUBATION
The mark [3] stands for this setting: Test System: AMES SALMONELLA TYPHIMURIUM, Strain/Indicator: TA100, Metabolic Activation: NONE, Method: STANDARD PLATE.
The mark [4] stands for this setting: Test System: AMES SALMONELLA TYPHIMURIUM, Strain/Indicator: TA1537, Metabolic Activation: NONE, Method: STANDARD PLATE.

Active and inactive are the calls of the source. No rule for the calls is given here.

With `CC(C)(C#N)C(C)(C)C#N`, the mutagenic call by setting is: (Test System: AMES SALMONELLA TYPHIMURIUM, Strain/Indicator: TA97, Metabolic Activation: HAMSTER, LIVER, S-9, AROCLOR 1254 (10 OR 30%), Method: PREINCUBATION) “inactive; negative”; (Test System: AMES SALMONELLA TYPHIMURIUM, Strain/Indicator: TA97, Metabolic Activation: NONE, Method: PREINCUBATION) “inactive; negative”; (Test System: AMES SALMONELLA TYPHIMURIUM, Strain/Indicator: TA97, Metabolic Activation: RAT, LIVER, S-9, AROCLOR 1254 (10 OR 30%), Method: PREINCUBATION) “inactive; negative”; (Test System: AMES SALMONELLA TYPHIMURIUM, Strain/Indicator: TA97, Method: PREINCUBATION) “inactive; negative”; (Test System: AMES SALMONELLA TYPHIMURIUM, Strain/Indicator: TA98, Metabolic Activation: HAMSTER, LIVER, S-9, AROCLOR 1254 (10 OR 30%), Method: PREINCUBATION) “inactive; negative”; (Test System: AMES SALMONELLA TYPHIMURIUM, Strain/Indicator: TA98, Metabolic Activation: HAMSTER, LIVER, S-9, AROCLOR 1254, Method: STANDARD PLATE) “inactive; negative”. Also, the mutagenic call by setting is: under setting [1], “inactive; negative”; (Test System: AMES SALMONELLA TYPHIMURIUM, Strain/Indicator: TA98, Metabolic Activation: NONE, Method: STANDARD PLATE) “inactive; negative”; (Test System: AMES SALMONELLA TYPHIMURIUM, Strain/Indicator: TA98, Metabolic Activation: RAT, LIVER, S-9, AROCLOR 1254 (10 OR 30%), Method: PREINCUBATION) “inactive; negative”; (Test System: AMES SALMONELLA TYPHIMURIUM, Strain/Indicator: TA98, Metabolic Activation: RAT, LIVER, S-9, AROCLOR 1254, Method: STANDARD PLATE) “inactive; negative”; (Test System: AMES SALMONELLA TYPHIMURIUM, Strain/Indicator: TA98, Method: PREINCUBATION) “inactive; negative”; (Test System: AMES SALMONELLA TYPHIMURIUM, Strain/Indicator: TA100, Metabolic Activation: HAMSTER, LIVER, S-9, AROCLOR 1254 (10 OR 30%), Method: PREINCUBATION) “inactive; negative”. The mutagenic call by setting is: (Test System: AMES SALMONELLA TYPHIMURIUM, Strain/Indicator: TA100, Metabolic Activation: HAMSTER, LIVER, S-9, AROCLOR 1254, Method: STANDARD PLATE) “inactive; negative”; under setting [2], “inactive; negative”; under setting [3], “inactive; negative”; (Test System: AMES SALMONELLA TYPHIMURIUM, Strain/Indicator: TA100, Metabolic Activation: RAT, LIVER, S-9, AROCLOR 1254 (10 OR 30%), Method: PREINCUBATION) “inactive; negative”; (Test System: AMES SALMONELLA TYPHIMURIUM, Strain/Indicator: TA100, Metabolic Activation: RAT, LIVER, S-9, AROCLOR 1254, Method: STANDARD PLATE) “inactive; negative”; (Test System: AMES SALMONELLA TYPHIMURIUM, Strain/Indicator: TA100, Method: PREINCUBATION) “inactive; negative”. Besides, the mutagenic call runs as follows: (Test System: AMES SALMONELLA TYPHIMURIUM, Strain/Indicator: TA102, Metabolic Activation: NONE, Method: PREINCUBATION) “inactive; negative”; (Test System: AMES SALMONELLA TYPHIMURIUM, Strain/Indicator: TA102, Method: PREINCUBATION) “inactive; negative”; (Test System: AMES SALMONELLA TYPHIMURIUM, Strain/Indicator: TA1535, Metabolic Activation: HAMSTER, LIVER, S-9, AROCLOR 1254 (10 OR 30%), Method: PREINCUBATION) “inactive; negative”; (Test System: AMES SALMONELLA TYPHIMURIUM, Strain/Indicator: TA1535, Metabolic Activation: HAMSTER, LIVER, S-9, AROCLOR 1254, Method: STANDARD PLATE) “inactive; negative”; (Test System: AMES SALMONELLA TYPHIMURIUM, Strain/Indicator: TA1535, Metabolic Activation: NONE, Method: PREINCUBATION) “inactive; negative”; (Test System: AMES SALMONELLA TYPHIMURIUM, Strain/Indicator: TA1535, Metabolic Activation: NONE, Method: STANDARD PLATE) “inactive; negative”. For the same compound, the mutagenic call is, setting by setting: (Test System: AMES SALMONELLA TYPHIMURIUM, Strain/Indicator: TA1535, Metabolic Activation: RAT, LIVER, S-9, AROCLOR 1254 (10 OR 30%), Method: PREINCUBATION) “inactive; negative”; (Test System: AMES SALMONELLA TYPHIMURIUM, Strain/Indicator: TA1535, Metabolic Activation: RAT, LIVER, S-9, AROCLOR 1254, Method: STANDARD PLATE) “inactive; negative”; under setting [4], “inactive; negative”; (Test System: AMES SALMONELLA TYPHIMURIUM, Strain/Indicator: TA1537, Metabolic Activation: RAT, LIVER, S-9, AROCLOR 1254, Method: STANDARD PLATE) “inactive; negative”; (Test System: AMES SALMONELLA TYPHIMURIUM, Strain/Indicator: TA1538, Metabolic Activation: HAMSTER, LIVER, S-9, AROCLOR 1254, Method: STANDARD PLATE) “inactive; negative”; (Test System: AMES SALMONELLA TYPHIMURIUM, Strain/Indicator: TA1538, Metabolic Activation: NONE, Method: STANDARD PLATE) “inactive; negative”. Also, the mutagenic call is, setting by setting: (Test System: AMES SALMONELLA TYPHIMURIUM, Strain/Indicator: TA1538, Metabolic Activation: RAT, LIVER, S-9, AROCLOR 1254, Method: STANDARD PLATE) “inactive; negative”; (Test System: MOUSE LYMPHOMA, Strain/Indicator: L5178Y (TK+/TK-), Metabolic Activation: NONE, Method: SUSPENSION/PLATE) “inactive; negative. reevaluation of results: negative”; (Test System: MOUSE LYMPHOMA, Strain/Indicator: L5178Y (TK+/TK-), Metabolic Activation: RAT, LIVER, S-9, AROCLOR 1254, Method: SUSPENSION/PLATE) “inactive; negative. reevaluation of results: negative”.

Turning to `CC(=O)C1c2cccc(O)c2C(=O)c2c(O)cccc21`, the mutagenic call by setting is: under setting [4], “active; positive”; (Test System: AMES SALMONELLA TYPHIMURIUM, Strain/Indicator: TA1537, Metabolic Activation: RAT, LIVER, S-9, PHENOBARBITAL AND BETA-NAPHTHOFLAVONE, Method: STANDARD PLATE) “inactive; negative”; (Test System: E. COLI, Strain/Indicator: WP2, Metabolic Activation: NONE, Method: STANDARD PLATE) “inactive; negative”; (Test System: E. COLI, Strain/Indicator: WP2, Metabolic Activation: RAT, LIVER, S-9, AROCLOR 1254, Method: STANDARD PLATE) “inactive; negative”; (Test System: E. COLI, Strain/Indicator: WP2 UVRA, Metabolic Activation: NONE, Method: STANDARD PLATE) “inactive; negative”; (Test System: E. COLI, Strain/Indicator: WP2 UVRA, Metabolic Activation: RAT, LIVER, S-9, AROCLOR 1254, Method: STANDARD PLATE) “inactive; negative”.

As for `CCn1c(N)nc2c3cccnc3cc(C)c21`, the mutagenic call (Test System: AMES SALMONELLA TYPHIMURIUM, Strain/Indicator: TA98, Metabolic Activation: RAT, LIVER, S-9, AROCLOR 1254, Method: PREINCUBATION) is “active; positive”.

With `Cc1cc2c(O)cccc2c2cc3ccccc3cc12`, the mutagenic call (Test System: AMES SALMONELLA TYPHIMURIUM, Strain/Indicator: TA100, Metabolic Activation: RAT, LIVER, S-9, AROCLOR 1254, Method: PREINCUBATION) was “active; positive”.

On to `O=C1c2ccc([N+](=O)[O-])cc2C(=O)N1CCl`, for which the mutagenic call was “active; positive” under setting [1]; “active; positive” (Test System: AMES SALMONELLA TYPHIMURIUM, Strain/Indicator: TA98, Metabolic Activation: RAT, LIVER, S-9, PCB, Method: PREINCUBATION); “active; positive” under setting [2]; “active; positive” (Test System: AMES SALMONELLA TYPHIMURIUM, Strain/Indicator: TA100, Metabolic Activation: RAT, LIVER, S-9, PCB, Method: PREINCUBATION).

On to `O=C(NCc1ccccc1)C1CO1` (stereo not given), for which the mutagenic call (Test System: AMES SALMONELLA TYPHIMURIUM, Strain/Indicator: TA100, Metabolic Activation: MOUSE, LIVER, S-9, AROCLOR 1254, Method: STANDARD PLATE) is “active; positive” and the mutagenic call under setting [3] is “active; positive”.

Consider `O=C(N=c1sn(C(=O)c2ccccc2[N+](=O)[O-])c2ccc([N+](=O)[O-])cc12)c1ccccc1[N+](=O)[O-]`, for which, for the setting “Test System: AMES SALMONELLA TYPHIMURIUM, Strain/Indicator: TA100, Metabolic Activation: S-9, Method: STANDARD PLATE”, the mutagenic call is “active; positive”.

Consider `Nc1ncnc2c1ncn2[C@@H]1O[C@H](CO)C[C@@H]1F`, for which the mutagenic call was “inactive; negative” (Test System: Mouse lymphoma, Strain/Indicator: L5178Y (tk+/tk-), Metabolic Activation: None, Method: Suspension/plate) and “active; equivocal (previous revaluation positive)” (Test System: Mouse lymphoma, Strain/Indicator: L5178Y (tk+/tk-), Metabolic Activation: Rat, Liver, S-9, Aroclor 1254, Method: Suspension/plate).

The record behind these values is PubChem BioAssay AID1259407 (Chemical Carcinogenesis Research Information System (CCRIS), 2018).
